The nature of the series: Human HepG2 cell viability assay in 384 well format. The class given is toxicity, cell-based. The arrangement: dose 125 nL, time 70.5 hour; concentration not given beside the values. The conditions noted are these: HepG2 cells, read-out: Inhibition.
With `Cc1cc(C(=O)NCC(c2ccccc2Cl)N2CCOCC2)on1` (stereo unspecified), the cytotoxicity at 70.5 h was -1.66%.
For `Cc1ncsc1CCC(=O)NC1CCN(c2ncccc2C#N)CC1`, the cytotoxicity at 70.5 h is -13.1%.
Then `CC(NCc1cnn(C)c1)c1noc(-c2ccc(Cl)cc2)n1` (stereo unspecified), with -5.15%; and `COc1cc2c(cc1C(=O)N1CC(c3ccncc3)C1)CCC2`, with -5.23%; and `O=C(c1ccoc1)N1CC[C@H]2OCC[C@@]2(COc2ncccc2F)C1`, with -9.01%.
With `Cc1c(C(=O)NCCC(C)C)nnn1-c1cccc2c1CCN(C)C2`, the cytotoxicity at 70.5 h was -5.25%.
As for `Cc1ccc(CN(C)C(=O)NCC(C)(C)NS(C)(=O)=O)s1`, the cytotoxicity at 70.5 h was -3.9%.
With `Cc1cnn(CC2CN(Cc3nnc(C4CC4)n3C)CCO2)c1` (stereo unspecified), the cytotoxicity at 70.5 h is -4.23%.
Consider `Cn1nc2c(cc1=O)CN(Cc1coc(-c3ccc(F)cc3)n1)CC2`, for which the cytotoxicity at 70.5 h is 14.8%.
To `Cc1cc(CN2CCCC(CNC(=O)Cn3cccn3)C2)oc1C` (stereo unspecified) belongs -6.83%; to `COc1ccc(C2Nc3ccccc3NC3=C2C(=O)NC3)cc1OC` (stereo unspecified), -7.99%; to `CC[C@@H](C)[C@@H](N)C(=O)Nc1cccc(-c2cnc(N)nc2)c1`, -6%.
To `COCCc1noc(CN2CCCC2Cn2cc(C)cn2)n1` (stereo unspecified) belongs 18.1%; to `Cc1cnc(N2CCO[C@@H]3CC(COCc4cccnc4)C[C@H]32)nc1` (stereo partly specified), -0.9%; to `CC(C)(C)c1oc(C(N)=O)cc1CN1CCCCC1CN1CCOCC1` (stereo unspecified), 39.9%.
In the case of `CN(Cc1noc(C(C)(C)C)n1)Cc1ccccc1N1CCCCC1`, the cytotoxicity at 70.5 h is -6.13%.
Turning to `O=C(NC1(C(=O)NC2CCCC2)CCCC1)c1ccc2[nH]ncc2c1`, the cytotoxicity at 70.5 h is -8.68%.
With `CC(O)CCN(C)C(=O)Nc1cccc(F)c1` (stereo unspecified), the cytotoxicity at 70.5 h is -8.99%.
Take `OC1(CNCCSCc2ccccc2)CCCNC1` (stereo unspecified): the cytotoxicity at 70.5 h amounted to 18.4%.
On to `Oc1nc(N2CCOCC2)nc2c1CCN(Cc1cccc(F)c1)CC2`, for which the cytotoxicity at 70.5 h is -5.57%.
Then `COCc1nn(C(C)C)c2c1CCN(Cc1ccsc1)C2`, with -5.82%; and `CC(C)c1cc(NCC2(CO)CCCC2)ncn1`, with -10.6%; and `CCc1cnc(CCNC(=O)N2CCCC(c3ncc[nH]3)C2)s1` (stereo unspecified), with 1.32%.
Turning to `COc1ccc(-c2noc(C(=O)NCCN3CCCCC3)n2)cc1OC`, the cytotoxicity at 70.5 h is 26.1%.
For the compound `COc1ncc(CN2CCCC(c3[nH]ncc3S(C)(=O)=O)C2)cn1` (stereo unspecified), the cytotoxicity at 70.5 h was -7.31%.
Take `Cc1nc(C2CCCN(C(=O)CN3CCCC3=O)C2)sc1C` (stereo unspecified): the cytotoxicity at 70.5 h was -15.5%.
`O=C(NCCn1ccnc1-c1cc2n(n1)CCCNC2)c1ccncc1`: the cytotoxicity at 70.5 h was -2.02%.
With `O=C(NCC(O)c1cccc(O)c1)C1CCN(C2CCCCC2)CC1` (stereo unspecified), the cytotoxicity at 70.5 h was -11.8%.
On to `COCc1nc(C2CC2)nn1-c1ccccc1Cl`, for which the cytotoxicity at 70.5 h was -2.98%.
Then `Cc1nccn1CCC1CCN(C(=O)C2CC3(CCNCC3)CN2)CC1` (stereo unspecified), with -8.48%; and `COCCCN(CCOC)C(=O)Nc1ccc(Br)cc1`, with -7.21%.
Take `CC(C)C(=O)NCC(=O)N(C)C1CCCN(C2Cc3ccccc3C2)C1` (stereo unspecified): the cytotoxicity at 70.5 h was -10.4%.
Turning to `CC(C)c1ncc2c(n1)CN(Cc1cccc(C(N)=O)c1)CC2`, the cytotoxicity at 70.5 h was -4.48%.
To `N#Cc1c(N2CCOCC2)nsc1-c1cccnc1` belongs -4.2%.
For `CCc1ccccc1-n1cc(O)c(C(=O)N2CCCCC2)n1`, the cytotoxicity at 70.5 h was -4.48%.
Take `Cc1nc2c(cc1C(=O)O)CCN(Cc1ccsc1)CC2`: the cytotoxicity at 70.5 h was -6.12%.
Consider `CO[C@H]1CN(S(=O)(=O)c2ccc(F)cc2)C[C@@]12CCCO2`, for which the cytotoxicity at 70.5 h came to 36.6%.
To `O=C1N(Cc2ccc(F)cc2)CCCC12CCN(C1CCSCC1)C2` (stereo unspecified) belongs -6%.
In the case of `O=C(c1c[nH]c2ccccc2c1=O)N1CCSCC1`, the cytotoxicity at 70.5 h is -6.3%.
`Cc1ccc(C(=O)N2CCN(CCc3cccs3)CC2)c(=O)[nH]1`: the cytotoxicity at 70.5 h was -8.54%.
`Cn1cc(-c2cnc(-c3ccnn3C)nc2)cc1C(=O)NC1CC1`: the cytotoxicity at 70.5 h is -4.34%.
On to `Cn1ccc(CN2CCC(CCc3ccc(O)cc3)CC2)cc1=O`, for which the cytotoxicity at 70.5 h was -9.59%.
Consider `CNC(=O)Cc1noc(Cc2cccc(Br)c2)n1`, for which the cytotoxicity at 70.5 h was -9.45%.
As for `Cc1ccc(CN[C@@H]2CO[C@H](CNS(=O)(=O)c3ccccc3)[C@H]2O)cc1`, the cytotoxicity at 70.5 h was -0.953%.
For `Cc1nc[nH]c1CN1CCOC(c2ccc(Cl)c(Cl)c2)C1` (stereo unspecified), the cytotoxicity at 70.5 h was -2.06%.
Consider `CCS(=O)(=O)Nc1ccn(Cc2cccc(Cl)c2)n1`, for which the cytotoxicity at 70.5 h is -4.96%.
To `CC(C)NC(=O)N1CCN2C(=O)N(Cc3ccc(F)cc3)C[C@H]2C1` belongs -4.66%; to `COc1ccc(-c2noc(C(N)CCSC)n2)cc1OC` (stereo unspecified), -3.12%; to `COCc1noc(-c2ccc(N3CCCCC3COC)nc2)n1` (stereo unspecified), -11.8%.
Take `CCN(CC)CCCNC(=O)c1nn(CC)cc1Cl`: the cytotoxicity at 70.5 h amounted to 2.52%.
As for `O=C(Nc1nncs1)N1CCC(CCO)CC1`, the cytotoxicity at 70.5 h was -7.1%.
To `O=C1CSC(c2ccccc2)c2c(n(C3CCOCC3)[nH]c2=O)N1` (stereo unspecified) belongs -23%; to `CCn1c(CC2CCN(S(=O)(=O)c3cccc(C)c3)CC2)nn(C)c1=O`, -4.11%; to `CC(C)CS(=O)(=O)Nc1ccc2c(c1)OCC(C)(C)C(=O)N2C`, 50.7%.
To `O=C1CCC(CCC(=O)N2CCC2c2cccs2)=NN1` (stereo unspecified) belongs -13.3%; to `CN(Cc1cccc(F)c1)C(=O)CN1CCCCC1Cn1cncn1` (stereo unspecified), -9.08%.
For `O=C1CC(c2ccc(F)cc2)c2cnn(C3CCCC3)c2N1` (stereo unspecified), the cytotoxicity at 70.5 h is -7.98%.
As for `CCOc1ccnc(N2CCN(C(=O)c3cn[nH]c3C)CC2)n1`, the cytotoxicity at 70.5 h stood at 13.7%.
To `O=C1CCCN1c1cccc(N2CCC(NCCc3cscn3)CC2)c1` belongs -4.03%; to `O=C(O)C1(n2ccc(-c3ccco3)n2)CCN(Cc2cccs2)CC1`, 17.7%.
As to `CCOCCCNC(=O)CN(c1ccc(F)c(F)c1)S(C)(=O)=O`, the cytotoxicity at 70.5 h was -12.9%.
Take `CC(C)NC(=O)CNC(C)COc1ccccc1` (stereo unspecified): the cytotoxicity at 70.5 h is -12.1%.
To `CC(=O)N1CCc2nc(N(C)C)nc(NCCc3ccccc3)c2CC1` belongs -9.06%; to `O=C(NCCc1ccsc1)Nc1cccnc1N1CCCC1`, 3.02%.
In the case of `C/N=C1\c2cc3cc(OC)ccc3n2CCN1C`, the cytotoxicity at 70.5 h was -6.1%.
Turning to `O=C(Nc1ccccc1OC1CCOC1)c1ccon1` (stereo unspecified), the cytotoxicity at 70.5 h is -1.12%.
With `Cc1cc(O)c(OCC(=O)/N=c2/[nH]c3c(s2)CCC3)cn1`, the cytotoxicity at 70.5 h is -14.7%.
To `Cc1cnn(CC2CCN(CC(O)c3ccccc3F)CC2)c1` (stereo unspecified) belongs 8.3%; to `Cc1ccc(-c2noc(CNCC3CN(C)CCO3)n2)cc1F` (stereo unspecified), -5.24%; to `CN(C)C(=O)C1CCC2(CCN(Cc3cnn(C)c3)CC2)C1` (stereo unspecified), -7.73%.
Take `CCC(Nc1cccc(OC)c1)C(=O)N(CCOC)Cc1cnn(C)c1` (stereo unspecified): the cytotoxicity at 70.5 h was -1.31%.
Consider `CCn1nc(C)cc1S(=O)(=O)N1CCC2(CC(=O)NC2=O)C1` (stereo unspecified), for which the cytotoxicity at 70.5 h was -5.01%.
Then `Cc1nc(CN2CCCC2Cn2cccn2)nc2ccccc12` (stereo unspecified), with 7.51%.
`CCN1CC(C(=O)NC(C)(C)CC(C)(C)C)CC1=O` (stereo unspecified): the cytotoxicity at 70.5 h was -1.71%.
Regarding `COc1cc2c(nn1)CCN(Cc1noc(-c3ccccc3)n1)C2`, the cytotoxicity at 70.5 h came out at 2.93%.
As for `Cc1cccc(CNCc2c(C)nn(C)c2N2CCOCC2)n1`, the cytotoxicity at 70.5 h was -2.64%.
With `Cc1ccc(CNC(c2cccc(F)c2)c2nccn2C)o1` (stereo unspecified), the cytotoxicity at 70.5 h was -3%.
For the compound `Cc1ccc(C(=O)NC2CCN(C(=O)Nc3ccccn3)CC2)o1`, the cytotoxicity at 70.5 h amounted to 16.1%.
Turning to `O=C(COc1ccc(Br)cc1F)Nc1cn[nH]c1`, the cytotoxicity at 70.5 h was 15.8%.
On to `COc1ccc(Cn2cc(C(=O)N(C)CCN(C)C)nn2)cc1`, for which the cytotoxicity at 70.5 h was -15%.
Then `O=C(c1coc(COc2cccc(F)c2)n1)N1CC[C@H](O)[C@@H](O)C1`, with -9.89%; and `CS(=O)(=O)Cc1ccc(NC(=O)Cc2cccnc2)cc1F`, with -4.71%.
On to `Cc1cnn(CC(C)NCc2nc(-c3ccsc3)oc2C)c1` (stereo unspecified), for which the cytotoxicity at 70.5 h was -8.91%.
To `Cn1cc(C(O)CNC(=O)c2cc(Br)ccc2Cl)cn1` (stereo unspecified) belongs -14.2%; to `COc1cccc2c1OCC(C(=O)N1CCN(S(=O)(=O)N(C)C)CC1)C2` (stereo unspecified), -2.76%; to `Fc1ccccc1CN1C[C@@H]2CN(Cc3cccnc3)CCO[C@@H]2C1`, -11.8%.
For the compound `O=C(CCc1nc2ccccc2[nH]1)Nc1ccc2c(c1)OCC(=O)N2`, the cytotoxicity at 70.5 h was -11.6%.
Consider `CCc1nnsc1C(=O)N1CCN(CC(O)CC)CC1` (stereo unspecified), for which the cytotoxicity at 70.5 h is -10.3%.
Then `CC(NC(=O)CCCOc1cccc(F)c1)c1ccncc1` (stereo unspecified), with -4.8%.
For `O=C(O)c1ccn(-c2ccccc2NC(=O)c2ccccc2Cl)n1`, the cytotoxicity at 70.5 h is -3.53%.
Turning to `CN(C1CCc2ccccc2C1)S(C)(=O)=O` (stereo unspecified), the cytotoxicity at 70.5 h turned out to be 0.716%.
In the case of `CC(=O)N1CCCN(C(=O)NC(C)Cn2cccn2)CC1` (stereo unspecified), the cytotoxicity at 70.5 h is -3.94%.
Turning to `Cn1cnc2c1C(COCc1ccccc1)N(Cc1cccnc1)CC2` (stereo unspecified), the cytotoxicity at 70.5 h was -0.0183%.
Turning to `COc1ccnc(CN(C)C(=O)CSc2nnc(N)s2)c1`, the cytotoxicity at 70.5 h is -5.2%.
For `COc1cc(CNc2nc(C(F)(F)F)no2)cc(OC)c1OC`, the cytotoxicity at 70.5 h was -4.05%.
In the case of `CNC(=O)c1cn[nH]c1C1CCCN1C(=O)c1ccccn1` (stereo unspecified), the cytotoxicity at 70.5 h is -1.79%.
For `O=C(Cn1cccn1)N1CCC(Cn2cc(-c3ccsc3)nn2)CC1`, the cytotoxicity at 70.5 h was -10.6%.
As to `N[C@@H]1c2ccccc2C2(CCN(c3cc(C(F)(F)F)ccn3)CC2)[C@H]1O`, the cytotoxicity at 70.5 h came to 39.4%.
To `OCCN1CC2(CCN(c3ccccc3)C2)C1` belongs 0.92%; to `Cc1nc(C)c(C(=O)NCCn2nc3ccccn3c2=O)s1`, -1.89%; to `Cc1cc(N(Cc2ccccn2)C2CC2)n2nc(C(F)(F)F)nc2n1`, -0.852%.
